Results published in patent publication US11154551B2, “HDAC1,2 inhibitors and methods of using the same” (UNIVERSITY OF UTAH RESEARCH FOUNDATION, priority 2014, dated 2021).
Entries after “also recorded” stand apart in the source; their conditions may differ.

Experiments:
SUDHL4 cells = assay: propidium-iodide / BrdU-PI cell cycle analysis; type: cell-based, human
Description: (§1) (B): Quantitation of the cell cycle data in (A), compiled from three independent analyses. The graphs plotted the average percentage of cells in each phase of the cell cycle. […] (C): FACS analysis following BrdU-PI staining of Karpas-422 and SUDHL4 cells was performed following a 48 h or 72 h treatment with ACY-957.
(§2) (B): Quantitation of the cell cycle analysis performed in (A). Data from three independent cell cycle analyses were compiled and average percentage cells with standard errors were shown in this panel.
(§3) Propidium-iodide Cell Cycle Analysis.
(§4) Since these DLBCL cells expressed a hyperactive form of EZH2, pharmacological inhibition of EZH2 activity was considered a therapeutic strategy. […] GSK126 was a S-adenosyl-methionine-competitive inhibitor of EZH2 methyltransferase activity, and DZNep was a S-adenosylhomocysteine hydrolase inhibitor that disrupted the components of the PRC2 complex, thereby causing reduced chromatin-associated EZH2 levels.

Karpas-422 cells [1] = assay: propidium-iodide / BrdU-PI cell cycle analysis; type: cell-based, human
Description: as §1
Cell cycle analysis of propidium-iodide stained cells was performed with fixed cells. […] (C): FACS analysis following BrdU-PI staining of Karpas-422 and SUDHL4 cells was performed following a treatment with 2 μM ACY-957, 50 nM doxorubicin or both for 48 h.
as §2, §3, §4
To test this possibility, cell cycle analysis following treatment of Karpas-422 with ACY-957, doxorubicin, or ACY-957 in combination with doxorubicin was performed.

Karpas-422 cells [2] = assay: ChIP of H3K27ac and H3K27me3 at BMF and TP63 promoters; type: cell-based, human; conditions: 2 μM, vs DMSO
Source text: RNA samples obtained from three independent treatments were subjected to RiboZero stranded sequencing using the Illumina Hiseq2000 sequencer. RNA-seq data from ACY-957-treated samples was compared to the publically available RNA seq data set from Karpas-422 cells following GSK126 treatment of Karpas-422 cells. Venn diagrams were made using the R package VennDiagram. Genes with adjusted p-value<0.05 and absolute log 2 fold change>0.585 were used in this analysis. (B): Pathway analysis of the 71 commonly up regulated genes was performed. Screen shots of the pathways that were misregulated in both ACY-957-treated Karpas-422 cells and in Karpas-422 cells following GSK-126 treatment. […] (C): Base read depth, scaled per million mapped reads, for BMF and Tp63 genes in DMSO- or ACY-957-treated Karpas-422 cells. […] Fold-increase as determined by real-time PCR analysis in H3K27ac relative to total H3 occupancy was calculated for both ACY-957-treated and DMSO-treated samples and the relative fold-enrichment of H3K27ac and […] in ACY-957-treated samples was calculated following normalization to DMSO-treated samples. The data represented an average fold-change calculated from three independent experiments+/−standard error. *p=0.003 and **p=0.004 (E): ChIP analysis of HDAC1 and HDAC2 at the promoters of BMF and Tp63 genes was performed in Karpas-422 cells. […]

[3] = tested on: Karpas-422 and SUDHL4 cells; assay: Western blot of acid-extracted histones (H4K91ac, H4K16ac, monoubiquitinated H4); type: cell-based, human; conditions: for monoubiquitinated form of H4 after doxorubicin: 48 h pretreatment, then 50 nM doxorubicin 4 h or 8 h
Description: Western analysis was performed with anti-BBAP antibody and histone H3 was used as a loading control. Whole cell lysate of HeLa cells was prepared following transfection of cells with either non-targeting or two different BBAP siRNAs. These extracts served as negative controls for the signal from BBAP antibody. (B): SUDHL4 and Karpas-422 cells were treated with DMSO or 2 μM ACY-957 for 48 hr prior to chromatin extraction. Western analysis was done using anti-H4K91ac or anti-H4K16ac and histone H4 served as a loading control. (C): HeLa cells were transfected with either wild type H4 or H4K91R mutant constructs for 65 hours prior to extraction of histones by trichloroacetic acid. Western blot analysis was performed with anti-FLAG antibody. (D): SUDHL4 cells and Karpas-422 were treated with DMSO or 2 μM ACY-957 for 24 hours and histones were extracted by TCA precipitation. Western blotting with anti-H4 was performed to detect H4 and monoubiquitylated H4. (E): SUDHL4 cells and Karpas-422 were treated with DMSO or 2 μM ACY-957 for 48 hours and treated with 50 nM doxorubicin for 4 hr or 8 hr prior to histone extraction. Histones were extracted by TCA precipitation and western blotting with anti-H4 was performed to detect H4 and monoubiquitinated H4.
Histone Extraction by Trichloroacetic Acid. DLBCL cells were treated with ACY957 in 25 cm^2 flasks. Following treatment, cells were pelleted, washed with PBS and the pellet was re-suspended in 400 μl of lysis buffer with protease inhibitors (200 μl 0.5M HEPES.KOH, pH 7.9, 15 μl 1M MgCl2, 50 μl 2M KCl, 50 μl 0.1M DTT, 100 μl 0.4M NEM, 10 μl 1000× Aprotinin/Leupeptin, 10 μl 1000× Pepstatin A, and water to a total volume of 10 m L plus Roche protease inhibitor cocktail). To the cell suspension, a final concentration of 0.2M sulfuric acid was added and samples were sonicated twice using the Fisher FB120 sonicator at amplitude of 50% and with 5 pulses. After sonication, proteins were extracted for 30 minutes at 4° C. with end over end rotation. Samples were then centrifuged at 13,000 rpm for 10 minutes at 4° C. and histones were precipitated with a 20% final concentration of trichloroacetic acid and incubated on ice for 30 minutes or moved directly to −80° C. overnight. Following precipitation, samples were centrifuged again for 10 minutes and the resulting pellet was washed with cold acidified acetone (acetone+0.05N HCl). The histone pellets were centrifuged at the same settings but for 5 minutes then washed again with cold acetone. After this wash the pellets were centrifuged for another 5 minutes and the acetone was discarded. Pellets were dried in an incubator at 37° C. for 5 minutes then re-suspended in 50 μl 2×SDS sample buffer+β-mercaptoethanol and 8 μl 1M Tris HCl pH 8 to neutralize. The samples were then boiled for 8 minutes at 95° C. and if there was still visible pellet they were either boiled longer, sonicated, had more sample buffer added or a combination thereof.
We treated Karpas-422 or SUDHL4 cells with DMSO or ACY-957 for 48 h prior to the incubation for 4 h or 8 h in the presence of doxorubicin.

[4] = tested on: Hdac1,2 or Hdac3 knockout cell lines; assay: Western blot of H4K5ac in conditional Hdac1,2 or Hdac3 knockout cells; type: cell-based, mouse
Description: For IC50 determination, recombinant HDAC enzymes were treated with HDAC1,2 or HDAC3 inhibitors in in vitro HDAC assays. (B). Western blots for H3K23ac using extracts from Pre-B-ALL SupB15 cells treated with increasing dose of HDAC1,2 inhibitor (ACY1035). (C). Hdac1^FI/FI, 2^FI/FI cells were infected with Ad-Cre virus to delete HDAC1 and HDAC2 (HDAC1,2 null) or uninfected (WT). (D). Hdac3^FI/FI cells were either uninfected (WT) or infected with Ad-Cre virus to delete Hdac3.

[5] = 24 h, 2 μM ACY-957, 0.5 μM DZNEP, 0.5 μM GSK126
[6] = 72 h, 2 μM ACY-957, 0.5 μM DZNEP, 0.5 μM GSK126

## Nc1ccc(-c2cccs2)cc1NC(=O)c1ccc2nc(N3CCNCC3)ccc2c1 [ACY-957, N-(2-amino-5-(thiophen-2-yl)phenyl)-2-(piperazin-1-yl)quinoline-6-carboxamide]
SUDHL4 cells; [5]
  progression through the cell cycle: did not affect their progression through the cell cycle
SUDHL4 cells; 48 h, 2 μM ACY-957, 0.5 μM GSK126
  cell cycle / G1 arrest: accumulation of SUDHL4 cells in G1 phase (G1 arrest)
SUDHL4 cells; 48 h and 72 h, accompanied by G1 arrest
  S-phase population, BrdU-PI FACS: decrease in S-phase population
SUDHL4 cells; [6]
  cell cycle / G1 arrest and sub-G1: greater number of cells arrested in G1 phase; also recorded: cell cycle arrest at G1 phase in SUDHL4 cells
Karpas-422 cells [1]; 2 μM ACY-957, 50 nM doxorubicin or both, 48 h
  cell death / sub-G1 population: sub-G1 population (i.e., dead cells) was observed
Karpas-422 cells [1]; [5]
  progression through the cell cycle: did not affect their progression through the cell cycle
Karpas-422 cells [1]; 48 h, 2 μM ACY-957, 0.5 μM DZNEP, 0.5 μM GSK126
  cell cycle / sub-G1 (dead cells): modest accumulation of sub-G1 population
Karpas-422 cells [1]; 48 h and 72 h, accompanied by increased cell death
  S-phase population, BrdU-PI FACS: decrease in S-phase population
Karpas-422 cells [1]; [6]
  cell cycle / sub-G1 (dead cells): larger increase in the number of sub-G1/dead cells; also recorded: large increase in the number of sub-G1 or dead Karpas-422 cells
Karpas-422 cells [2]
  H3K27ac at promoter regions of TP63 and BMF: increase in H3K27ac levels at the promoter regions of both TP63 and BMF genes
  H3K27me3 at TP63 and BMF promoters: concomitant decrease in H3K27me3 was not observed
[3]; 2 μM, 48 hr
  global H4K16ac levels: increased global levels of H4K16ac
  global H4K91ac levels: increased global H4K91ac levels
[3]; 30 h or 48 h, without doxorubicin
  global monoubiquitinated form of H4: no change in global levels of the slow migrating monoubiquitinated form of H4
[3]
  monoubiquitinated form of H4 after doxorubicin: significant reduction to complete absence of the slow migrating monoubiquitinated form of H4
[3]; listed as ACY957
  monoubiquitinated form of H4 after doxorubicin: decrease in the BBAP-mediated H4K91 monoubiquitination
[4]
  H4K5ac in Hdac3-null cells: additive increase in H4K5ac
